The subject of one test is ABCB1. Briefly: mRNA level by qPCR in SNK6 cells. Format: cell-based, human. The following applies: 0.5 µM peptide, 6 h, vs CTL, n = 4 (Fig. 3f). The protocol: (§1) Fig. 3 Peptide for the last eight aa of HKDC1 at the C-terminal (Tf-D-HKC8) inhibits EBV replication and P-gp expression through ROS generation and DNA damage in ENKTL cells. SNK6 cells were treated with control (CTL), Tf-D-HKN15, Tf-D-HKC15, or Tf-D-HKC8 peptide (0.5 µM) for 6 h and the cells were used for biomedical analysis. a ROS formation, n = 5. b 3-nitrotyrosine (3-NT) formation, n = 5. c 8-OHdG formation, n = 5. d Quantitation of γH2AX formation, n = 5. e Representative western blotting bands for d. f mRNA level by qPCR for BZLF1, BMRF1, and ABCB1, n = 4. g Protein quantitation for Zta, EA-D, and P-gp, n = 5. h Representative pictures of western blots for g. i EBV viral genomes/cell by qPCR, n = 4. *P < 0.05, vs CTL group; ^¶P < 0.05, vs Tf-D-HKC15 group. Results were expressed as mean ± SEM.
For orientation: Quantitative PCR measures a nucleic acid by following its amplification.

In test [1] the test system is SNK6 xenograft. The test is described as follows: Superoxide anion release from tumor tissue. The test is classed as in vivo, mouse. The following applies: nude mice, intratumoral 50 µM peptide every 2 days from day ~18, tissue day 50, chemiluminescence vs CTL, n = 5. The protocol:
In vivo superoxide release analysis. Superoxide anion (O2^.-) release from tumor tissues was determined using a luminol-EDTA-Fe enhanced chemiluminescence (CL) system supplemented with DMSO-TBAC (Dimethyl sulfoxide-tetrabutyl-ammonium chloride) solution for extraction of released O2^.- from tissues, as described previously (11). Superoxide levels were calculated from the standard curve generated by the xanthine/xanthine oxidase reaction (8).

Test [2] relates to SNK6 xenograft. Briefly: Tumor growth by H&E staining (tumor spots). The test is classed as in vivo, mouse. As to conditions: nude mice, intratumoral 50 µM peptide every 2 days from day ~18, tissue day 50, vs CTL, n = 5. The source says:
Biomedical analysis of tumor tissues.

A further test deals with EBV. The test is described as follows: EBV viral genomes/cell by qPCR in SNK6 cells. The test is classed as cell-based. As to conditions: 0.5 µM peptide, 6 h, vs CTL, n = 4 (Fig. 3i). Here is the method:
Detection of EBV copy number. Genomic DNA was extracted from treated SNK-6 cells or SNK-6 tumor tissue in mice using a QIAamp DNA Mini Kit (Qiagen). The EBV DNA copy number was measured through qPCR using 50ng of total DNA with EBV BMRF1 primers (see Table 1), and the results were normalized using cellular β-actin (primers see Table 1) as an internal control (13, 14). The Namalwa cell line, which contains 2 EBV viral genome copies, was used as a standard to prepare calibration curves for both EBV BMRF1 and β-actin genes, and the EBV viral load was presented as the number of viral genomes per cell (15, 16).

Test [3] deals with SNK6 cells. Briefly: ROS formation (CM-H2DCFDA). The test is classed as cell-based, human. The following applies: 0.5 µM peptide, 6 h, compared with CTL group, n = 5 (Fig. 3a). Here is the method:
Measurement of ROS generation. Treated cells were seeded in a 24-well plate and incubated with 10μM CM-H2DCFDA (Invitrogen) for 45 min at 37°C, and then the intracellular formation of reactive oxygen species (ROS) was measured at excitation/emission wavelengths of 485/530nm using a FLx800 microplate fluorescence reader (Bio-Tek). The data was normalized as arbitrary units (8, 11).

A further test relates to BMRF1. The test is described as follows: mRNA level by qPCR in SNK6 cells. Format: cell-based, EBV. As to conditions: 0.5 µM peptide, 6 h, vs CTL, n = 4 (Fig. 3f). Here is the method: as §1
A further test has as its system BZLF1. The test is described as follows: mRNA level by qPCR in SNK6 cells. The test is classed as cell-based, EBV. As to conditions: 0.5 µM peptide, 6 h, vs CTL, n = 4 (Fig. 3f). Here is the method:
as §1

Test [4] has as its system SNK6 cells. Briefly: Cell migration assay. The test is classed as cell-based, human. The following applies: 0.5 µM peptide, 6 h, vs CTL, n = 5 (Fig. 5b). Here is the method:
Migration and invasion assays. Cell migration and invasion assays were performed in 24-well chemotaxis plates with an 8μm polycarbonate filter membrane. The plates were coated with 20μg Matrigel for invasion assays and uncoated for migration assays. Invasion and migration were expressed as the number of migrated cells bound per microscopic field and averaged from at least four fields per assay in at least 4 experiments (18, 19).

Test [5] deals with SNK6 cells. An excerpt: (§2) We investigated the potential role of HKDC1-based peptides in ENKTL cells that were isolated from the MNCs of ENKTL patients or SNK6 cell line. Three different kinds of HKDC1-based targeting peptides, including the last 15 aa at either the N-terminal (HKN15) or C-terminal (HKC15), or the last eight aa at the C-terminal (HKC8) were selected; four different kinds of cell-penetrating sequences were employed to deliver the HKDC1-based peptides, including Antp (a 16 penetrating residue long sequence from the Drosophila antennapedia-homeodomain), penetration-accelerating segment, TAT (HIV-1 TAT sequence), and Tf (the Tf receptor (TfR) internalization sequence) sequences. All of the aa with the D-configuration (marked as D) were synthesized as retro-inverso peptides. […] We then evaluated the toxic effect of two peptides (including Tf-D-HKC15 and Tf-D-HKC8) on different kinds of primary and cancer cell lines (see details in Table 2). […] We also evaluated the peptide delivery efficiency using ^125I-labeled uptake assay for both Tf-D-HKC8 and Tf-D-HKC15 peptides.
(§3) Measurement of apoptosis and cell death. Apoptosis was evaluated by TUNEL assay using the In Situ Cell Death Detection Kit™ (Roche). Cells were fixed in 4% paraformaldehyde and labeled with TUNEL reagents. Stained cells were photographed by a fluorescence microscope (11). For cell death analysis, the propidium iodide (PI) staining was performed by addition of 6.25 µg/ml of PI to the cells, and cell death was immediately evaluated by FACS analysis (3).

The test system of a further test is MNCs from ENKTL patients. As to conditions: read-out: IC50 (µM) ENKTL, half-maximal cell death activity, peptides 0.1–15 µM, 6 h, PI staining, FACS, mean ± SEM, n in cell.
Source text: as §2, §3

Test [6] concerns SNK6 cells. Briefly: 8-OHdG formation (DNA damage ELISA). The test is classed as cell-based, human. The following applies: 0.5 µM peptide, 6 h, vs CTL, n = 5 (Fig. 3c). The protocol: Measurement of DNA breaks. 8-OHdG formation was measured using an OxiSelect™ Oxidative DNA Damage ELISA Kit (Cat No. STA320, from Cell Biolabs Inc.) per manufacturers’ instructions. The formation of γH2AX was measured from nuclear extracts by western blotting using H2AX as the input control (8).

Setting [7] is: read-out: IC50 (µM) SNK6, half-maximal cell death activity, SNK6 cells, peptides 0.1–15 µM, 6 h, PI staining, FACS, mean ± SEM, n in cell (Table 1).

Read-outs that look alike come from different tables or passages of the source.

Turning to HAIYPRH-LQQAQKEN [Tf-D-HKC8], the “ABCB1 mRNA” value with ABCB1 was 27%. Also, the “superoxide anion release from tumor” value with SNK6 xenograft [1] came out at 297%. For the same substance, in the test on SNK6 xenograft [2], the “tumor growth using H&E staining (tumor spots)” value was 23%. The EBV genome copies with EBV came out at 21%. In the test on SNK6 cells [3], this substance showed an ROS formation of 229%. The “BMRF1 mRNA” value in the test on BMRF1 is recorded as 31%. The “BZLF1 mRNA” value with BZLF1 is on record as 21%. This substance also showed a cell migration with SNK6 cells [4] of 23%. The IC50 (usually the concentration at which inhibition is half-maximal) in the test with SNK6 cells [5] (setting [7]) came out at 0.3 ± 0.2 µM; in the test on MNCs from ENKTL patients it was 0.2 ± 0.1 µM. This substance returned an 8-OHdG formation with SNK6 cells [6] of 209%.

Consider HAIYPRH-ITAVAKRLQQAQKEN [Tf-D-HKC15], for which the “ABCB1 mRNA” value with ABCB1 came to 58%. The “superoxide anion release from tumor” value with SNK6 xenograft [1] came out at 203%. The “tumor growth using H&E staining (tumor spots)” value in the test on SNK6 xenograft [2] came out at 56%. The substance also returned an EBV genome copies with EBV of 62%. For the same substance, in the test on SNK6 cells [3], the ROS formation came to 165%. Besides, the “BMRF1 mRNA” value in the test with BMRF1 worked out at 65%. Besides, the “BZLF1 mRNA” value with BZLF1 is 47%. This substance also gave a cell migration in the test with SNK6 cells [4] of 66%. Also, the IC50 in the test with SNK6 cells [5] (setting [7]) came to 1.2 ± 0.5 µM; in the test with SNK6 cells [5] (read-out: Peptide IC50 (µM), cell death, SNK6, Human natural killer/T-cell lymphoma/EBV(+), 0.1–15 µM, 6 h (suspension) or 12 h (adherent cells), PI/FACS, mean ± SEM (Table 2)), 1.2 ± 0.3 µM; in the test with MNCs from ENKTL patients, 0.9 ± 0.3 µM. Besides, in the test with SNK6 cells [6], the 8-OHdG formation stood at 157%.

These data come from article PMC7515829, “HKDC1 C-terminal based peptides inhibit extranodal natural killer/T-cell lymphoma by modulation of mitochondrial function and EBV suppression” (Leukemia, 2020).
